The text below walks through data of PMC3288743 (Bioorganic & medicinal chemistry letters, 2012).

Each structure is given as a SMILES string.

By inhibition is commonly meant the drop in the measured response relative to a control, in per cent.

The target in test [1] is T1, haspin (Homo sapiens, UniProt Q8TF76).
T1 sequence (Q8TF76 1-798): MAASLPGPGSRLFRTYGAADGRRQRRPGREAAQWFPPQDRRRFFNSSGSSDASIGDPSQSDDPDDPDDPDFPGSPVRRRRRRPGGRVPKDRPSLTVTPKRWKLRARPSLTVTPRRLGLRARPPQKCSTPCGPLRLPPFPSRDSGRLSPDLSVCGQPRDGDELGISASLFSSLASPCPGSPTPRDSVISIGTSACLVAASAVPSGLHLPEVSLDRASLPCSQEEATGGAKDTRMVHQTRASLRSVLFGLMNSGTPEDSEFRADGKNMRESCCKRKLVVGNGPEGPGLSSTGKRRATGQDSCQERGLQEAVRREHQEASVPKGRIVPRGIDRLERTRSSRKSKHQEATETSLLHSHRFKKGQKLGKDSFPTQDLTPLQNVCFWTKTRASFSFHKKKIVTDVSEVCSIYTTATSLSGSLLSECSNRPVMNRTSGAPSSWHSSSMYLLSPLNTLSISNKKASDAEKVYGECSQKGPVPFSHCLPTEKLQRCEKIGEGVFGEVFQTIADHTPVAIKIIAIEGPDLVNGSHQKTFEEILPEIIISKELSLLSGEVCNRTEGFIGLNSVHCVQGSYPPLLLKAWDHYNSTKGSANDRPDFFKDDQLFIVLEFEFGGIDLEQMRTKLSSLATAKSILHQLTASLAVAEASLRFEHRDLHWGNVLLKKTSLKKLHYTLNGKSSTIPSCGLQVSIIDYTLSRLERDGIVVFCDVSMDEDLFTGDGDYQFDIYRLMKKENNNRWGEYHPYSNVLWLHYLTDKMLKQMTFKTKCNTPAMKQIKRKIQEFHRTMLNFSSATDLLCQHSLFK
Kind of test: TR-FRET haspin kinase inhibition assay. Type of test: biochemical.

Another test relates to mouse xenograft model. The note with it: cited from earlier work.
The next test addresses CaMK2b (Homo sapiens, UniProt Q13554). Kind of test: kinase panel profiling. The test is classed as biochemical. The note with it: read-out: inhibition of CaMK2b.
The next test deals with CaMK2d (Homo sapiens, UniProt Q13557). Kind of test: kinase panel profiling. The note with it: read-out: inhibition of CaMK2d. The test is classed as biochemical.
Chain of CaMK2d (Q13557 whole entry, species assumed): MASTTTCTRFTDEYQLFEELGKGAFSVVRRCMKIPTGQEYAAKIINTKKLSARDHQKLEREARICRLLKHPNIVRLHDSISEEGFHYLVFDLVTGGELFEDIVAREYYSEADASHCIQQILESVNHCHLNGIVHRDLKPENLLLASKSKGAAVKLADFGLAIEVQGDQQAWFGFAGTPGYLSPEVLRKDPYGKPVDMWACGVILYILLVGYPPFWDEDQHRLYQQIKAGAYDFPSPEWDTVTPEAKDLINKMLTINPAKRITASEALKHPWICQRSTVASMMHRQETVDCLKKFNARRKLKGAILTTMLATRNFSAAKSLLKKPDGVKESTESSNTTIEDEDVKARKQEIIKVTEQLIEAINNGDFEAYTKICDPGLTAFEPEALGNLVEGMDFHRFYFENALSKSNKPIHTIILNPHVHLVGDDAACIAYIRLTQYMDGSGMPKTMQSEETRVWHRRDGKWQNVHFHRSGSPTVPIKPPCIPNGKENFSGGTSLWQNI
In another test the target is CDK7-CycH-Mat1 (Homo sapiens, UniProt P50613). Kind of test: kinase panel profiling. The test is classed as biochemical. Conditions: read-out: inhibition of CDK7-CycH-Mat1.
Chain of CDK7-CycH-Mat1 (P50613 whole entry): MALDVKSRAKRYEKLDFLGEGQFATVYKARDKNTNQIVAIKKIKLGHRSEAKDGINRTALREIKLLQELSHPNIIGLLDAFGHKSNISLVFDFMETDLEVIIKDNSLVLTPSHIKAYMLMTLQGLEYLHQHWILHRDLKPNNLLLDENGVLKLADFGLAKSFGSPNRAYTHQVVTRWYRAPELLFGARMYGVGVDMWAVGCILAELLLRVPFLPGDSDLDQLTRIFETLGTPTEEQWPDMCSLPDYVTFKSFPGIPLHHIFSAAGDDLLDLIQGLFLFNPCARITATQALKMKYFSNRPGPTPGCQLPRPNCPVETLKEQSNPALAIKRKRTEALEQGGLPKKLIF
Chain of CDK7-CycH-Mat1 (P51946 whole entry partner): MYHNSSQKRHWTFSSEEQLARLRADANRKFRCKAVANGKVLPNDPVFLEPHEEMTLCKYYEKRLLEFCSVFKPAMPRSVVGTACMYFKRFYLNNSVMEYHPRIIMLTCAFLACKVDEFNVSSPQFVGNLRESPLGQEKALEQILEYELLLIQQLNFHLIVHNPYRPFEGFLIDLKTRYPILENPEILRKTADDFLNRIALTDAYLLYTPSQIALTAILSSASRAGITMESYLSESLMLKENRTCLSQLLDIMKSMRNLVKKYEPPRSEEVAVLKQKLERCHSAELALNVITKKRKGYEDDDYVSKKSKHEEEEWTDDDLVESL
Chain of CDK7-CycH-Mat1 (P51948 whole entry partner): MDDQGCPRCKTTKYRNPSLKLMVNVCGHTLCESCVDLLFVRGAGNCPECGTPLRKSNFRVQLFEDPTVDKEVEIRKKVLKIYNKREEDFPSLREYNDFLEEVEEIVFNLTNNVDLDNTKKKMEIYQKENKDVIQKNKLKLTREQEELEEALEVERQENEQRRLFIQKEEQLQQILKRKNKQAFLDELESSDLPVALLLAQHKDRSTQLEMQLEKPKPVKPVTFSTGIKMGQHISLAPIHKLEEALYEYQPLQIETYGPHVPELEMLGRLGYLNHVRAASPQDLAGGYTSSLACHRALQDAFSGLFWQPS
In a further test the target is T2, cGK2 (Homo sapiens, UniProt Q13237).
T2 sequence (Q13237 1-762): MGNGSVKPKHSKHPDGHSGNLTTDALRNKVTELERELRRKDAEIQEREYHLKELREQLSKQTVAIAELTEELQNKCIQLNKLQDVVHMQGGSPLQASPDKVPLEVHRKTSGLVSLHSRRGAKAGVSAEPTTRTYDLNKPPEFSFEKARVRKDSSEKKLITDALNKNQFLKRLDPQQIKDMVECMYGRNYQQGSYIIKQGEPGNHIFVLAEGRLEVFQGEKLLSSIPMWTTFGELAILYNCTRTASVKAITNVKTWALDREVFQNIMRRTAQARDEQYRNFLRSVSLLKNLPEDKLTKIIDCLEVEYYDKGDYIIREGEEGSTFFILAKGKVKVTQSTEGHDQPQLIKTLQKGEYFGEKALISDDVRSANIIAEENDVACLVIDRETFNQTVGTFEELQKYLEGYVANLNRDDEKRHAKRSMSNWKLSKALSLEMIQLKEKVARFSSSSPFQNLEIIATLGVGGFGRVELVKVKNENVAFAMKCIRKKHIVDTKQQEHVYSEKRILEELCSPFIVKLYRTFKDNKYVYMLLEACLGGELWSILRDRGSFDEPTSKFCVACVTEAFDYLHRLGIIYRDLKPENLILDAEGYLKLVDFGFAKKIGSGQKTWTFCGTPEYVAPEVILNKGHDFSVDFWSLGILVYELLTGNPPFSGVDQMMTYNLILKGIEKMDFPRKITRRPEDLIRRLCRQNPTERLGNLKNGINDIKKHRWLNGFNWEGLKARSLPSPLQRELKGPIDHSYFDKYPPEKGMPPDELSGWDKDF
Kind of test: kinase panel profiling. Type of test: biochemical. Conditions: read-out: inhibition of cGK2.

The target in the next test is CK1d (Homo sapiens, UniProt P48730). Kind of test: kinase panel profiling. Type of test: biochemical. Conditions: read-out: inhibition of CK1d.
Chain of CK1d (P48730 whole entry): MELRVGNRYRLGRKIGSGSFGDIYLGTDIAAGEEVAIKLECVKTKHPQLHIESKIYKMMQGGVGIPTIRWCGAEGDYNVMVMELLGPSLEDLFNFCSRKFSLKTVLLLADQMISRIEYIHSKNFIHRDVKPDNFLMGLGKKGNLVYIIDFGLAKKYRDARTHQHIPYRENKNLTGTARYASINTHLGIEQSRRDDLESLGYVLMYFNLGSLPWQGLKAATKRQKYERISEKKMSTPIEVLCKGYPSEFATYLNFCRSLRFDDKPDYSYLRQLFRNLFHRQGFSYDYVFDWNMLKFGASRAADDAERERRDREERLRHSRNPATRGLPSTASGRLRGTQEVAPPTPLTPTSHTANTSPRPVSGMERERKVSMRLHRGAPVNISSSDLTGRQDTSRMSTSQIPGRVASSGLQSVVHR
The target of a further test is CLK1 (Homo sapiens, UniProt P49759). Kind of test: kinase panel profiling. Type of test: biochemical. Conditions: read-out: inhibition of CLK1.
Chain of CLK1 (P49759 whole entry): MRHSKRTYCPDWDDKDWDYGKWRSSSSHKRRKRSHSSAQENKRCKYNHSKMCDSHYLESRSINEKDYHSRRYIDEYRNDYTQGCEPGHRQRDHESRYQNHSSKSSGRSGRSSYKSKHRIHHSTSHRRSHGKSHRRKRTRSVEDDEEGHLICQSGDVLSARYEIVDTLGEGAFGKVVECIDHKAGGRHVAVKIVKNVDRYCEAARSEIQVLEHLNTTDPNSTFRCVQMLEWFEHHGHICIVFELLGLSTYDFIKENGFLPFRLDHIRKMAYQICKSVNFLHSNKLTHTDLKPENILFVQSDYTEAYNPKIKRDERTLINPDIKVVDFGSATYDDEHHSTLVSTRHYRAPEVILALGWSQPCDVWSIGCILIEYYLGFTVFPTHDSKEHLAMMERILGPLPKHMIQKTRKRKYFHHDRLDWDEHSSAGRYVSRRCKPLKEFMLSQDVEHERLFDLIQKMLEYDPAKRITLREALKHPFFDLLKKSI
A further test has as its target CLK2 (Homo sapiens, UniProt P49760). Kind of test: kinase panel profiling. Conditions: read-out: inhibition of CLK2. Type of test: biochemical.
For the next test, the target named is DYRK1A (Homo sapiens, UniProt Q13627). Kind of test: kinase panel profiling. The test is classed as biochemical. The note with it: read-out: inhibition of DYRK1A.
A further test addresses DYRK1B (Homo sapiens, UniProt Q9Y463). Kind of test: kinase panel profiling. Type of test: biochemical. Conditions: read-out: inhibition of DYRK1B.
A further test has as its target T3, DYRK3 (Homo sapiens, UniProt O43781).
T3 sequence (O43781 1-588): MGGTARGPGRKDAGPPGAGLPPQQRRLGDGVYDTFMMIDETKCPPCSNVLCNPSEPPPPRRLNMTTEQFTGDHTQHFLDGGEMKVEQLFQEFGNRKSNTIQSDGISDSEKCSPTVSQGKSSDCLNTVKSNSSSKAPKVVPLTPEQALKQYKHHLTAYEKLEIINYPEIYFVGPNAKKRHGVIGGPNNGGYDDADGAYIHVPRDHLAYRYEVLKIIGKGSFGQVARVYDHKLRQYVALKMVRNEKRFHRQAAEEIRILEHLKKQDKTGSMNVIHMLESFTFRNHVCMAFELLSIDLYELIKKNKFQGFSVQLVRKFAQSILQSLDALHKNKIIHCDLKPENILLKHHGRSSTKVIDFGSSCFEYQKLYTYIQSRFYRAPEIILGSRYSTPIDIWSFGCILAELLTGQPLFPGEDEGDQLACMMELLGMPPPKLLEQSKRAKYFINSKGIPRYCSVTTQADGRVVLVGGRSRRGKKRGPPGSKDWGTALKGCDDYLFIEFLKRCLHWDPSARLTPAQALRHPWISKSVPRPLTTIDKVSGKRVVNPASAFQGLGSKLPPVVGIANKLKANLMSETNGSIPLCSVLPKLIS
Kind of test: kinase panel profiling. Type of test: biochemical. The note with it: read-out: inhibition of DYRK3.

A further test deals with PASK (Homo sapiens, UniProt Q96RG2). Kind of test: kinase panel profiling. Type of test: biochemical. The note with it: read-out: inhibition of PASK.
In a further test the target is PIM1 (Homo sapiens, UniProt P11309). Kind of test: kinase panel profiling. Type of test: biochemical. The note with it: read-out: inhibition of PIM1.
Chain of PIM1 (P11309 whole entry, species assumed): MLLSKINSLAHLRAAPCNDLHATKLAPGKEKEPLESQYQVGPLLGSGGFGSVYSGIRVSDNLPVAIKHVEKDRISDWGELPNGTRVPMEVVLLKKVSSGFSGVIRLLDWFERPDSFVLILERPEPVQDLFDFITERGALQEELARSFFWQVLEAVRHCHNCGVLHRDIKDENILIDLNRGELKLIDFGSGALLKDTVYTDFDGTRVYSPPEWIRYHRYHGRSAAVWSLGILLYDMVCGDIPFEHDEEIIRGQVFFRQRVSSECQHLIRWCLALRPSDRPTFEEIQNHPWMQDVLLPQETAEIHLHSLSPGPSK
The next test concerns the target T4, PKD3 (Homo sapiens, UniProt O94806).
T4 sequence (O94806 1-890): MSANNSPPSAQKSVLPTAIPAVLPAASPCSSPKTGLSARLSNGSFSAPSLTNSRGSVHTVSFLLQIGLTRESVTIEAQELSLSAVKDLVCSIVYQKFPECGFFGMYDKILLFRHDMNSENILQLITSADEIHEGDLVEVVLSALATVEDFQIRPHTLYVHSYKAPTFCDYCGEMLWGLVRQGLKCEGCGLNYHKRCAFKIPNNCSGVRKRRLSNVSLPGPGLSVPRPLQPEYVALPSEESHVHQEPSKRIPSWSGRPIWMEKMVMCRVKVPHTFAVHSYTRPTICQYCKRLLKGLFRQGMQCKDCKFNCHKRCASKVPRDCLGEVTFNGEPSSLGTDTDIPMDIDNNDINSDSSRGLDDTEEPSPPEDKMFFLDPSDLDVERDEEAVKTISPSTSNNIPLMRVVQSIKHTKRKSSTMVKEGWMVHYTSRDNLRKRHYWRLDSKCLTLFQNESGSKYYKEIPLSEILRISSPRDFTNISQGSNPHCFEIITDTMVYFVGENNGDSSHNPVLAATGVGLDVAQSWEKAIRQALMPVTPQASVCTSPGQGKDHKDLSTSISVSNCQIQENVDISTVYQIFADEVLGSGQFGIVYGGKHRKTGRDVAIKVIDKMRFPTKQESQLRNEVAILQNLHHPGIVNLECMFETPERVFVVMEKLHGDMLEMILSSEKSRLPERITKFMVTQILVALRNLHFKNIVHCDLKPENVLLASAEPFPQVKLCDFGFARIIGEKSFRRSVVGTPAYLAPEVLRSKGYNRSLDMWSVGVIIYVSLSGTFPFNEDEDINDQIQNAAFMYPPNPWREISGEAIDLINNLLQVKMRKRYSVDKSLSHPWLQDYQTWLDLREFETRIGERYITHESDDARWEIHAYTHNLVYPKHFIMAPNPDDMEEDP
Kind of test: kinase panel profiling. Type of test: biochemical. The note with it: read-out: inhibition of PKD3.

Test [2] has as its target T1, haspin. Kind of test: biochemical. Conditions: read-out: inhibition of haspin.

Chain of CaMK2b (Q13554 whole entry, species assumed): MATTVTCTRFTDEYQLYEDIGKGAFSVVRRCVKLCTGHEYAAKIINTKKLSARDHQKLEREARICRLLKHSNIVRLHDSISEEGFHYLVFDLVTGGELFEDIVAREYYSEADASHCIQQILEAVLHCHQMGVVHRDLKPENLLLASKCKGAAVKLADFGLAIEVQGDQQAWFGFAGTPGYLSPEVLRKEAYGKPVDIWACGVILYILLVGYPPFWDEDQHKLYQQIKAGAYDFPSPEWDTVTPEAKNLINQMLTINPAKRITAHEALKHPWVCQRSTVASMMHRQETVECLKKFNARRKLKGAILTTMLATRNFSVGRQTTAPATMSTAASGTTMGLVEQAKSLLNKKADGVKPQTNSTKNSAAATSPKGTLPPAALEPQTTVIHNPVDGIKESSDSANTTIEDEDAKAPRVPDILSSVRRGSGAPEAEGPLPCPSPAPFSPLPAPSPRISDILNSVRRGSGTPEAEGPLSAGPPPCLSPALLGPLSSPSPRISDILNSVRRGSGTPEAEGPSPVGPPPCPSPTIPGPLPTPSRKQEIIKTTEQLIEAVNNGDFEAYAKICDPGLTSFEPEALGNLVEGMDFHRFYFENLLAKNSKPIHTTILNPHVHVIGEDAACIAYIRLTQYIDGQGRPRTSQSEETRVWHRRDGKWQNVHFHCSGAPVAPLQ
Chain of DYRK1B (Q9Y463 whole entry, species assumed): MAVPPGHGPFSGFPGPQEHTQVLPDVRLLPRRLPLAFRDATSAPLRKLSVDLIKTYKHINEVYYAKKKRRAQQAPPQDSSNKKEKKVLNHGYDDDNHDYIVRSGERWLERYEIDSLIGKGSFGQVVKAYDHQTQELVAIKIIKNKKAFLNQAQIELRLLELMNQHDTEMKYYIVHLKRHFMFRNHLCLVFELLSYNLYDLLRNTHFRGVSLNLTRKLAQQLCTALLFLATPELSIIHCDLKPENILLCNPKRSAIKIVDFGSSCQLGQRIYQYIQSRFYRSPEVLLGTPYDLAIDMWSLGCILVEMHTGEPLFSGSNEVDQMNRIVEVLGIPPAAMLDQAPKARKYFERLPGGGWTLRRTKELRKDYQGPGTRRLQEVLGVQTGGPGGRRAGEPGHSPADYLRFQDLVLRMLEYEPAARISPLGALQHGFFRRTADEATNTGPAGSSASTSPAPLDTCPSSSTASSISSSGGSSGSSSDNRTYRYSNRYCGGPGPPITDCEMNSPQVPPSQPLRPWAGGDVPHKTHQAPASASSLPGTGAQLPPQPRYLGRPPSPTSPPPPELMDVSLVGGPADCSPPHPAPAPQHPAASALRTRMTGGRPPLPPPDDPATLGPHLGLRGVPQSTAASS
Chain of CLK2 (P49760 whole entry, species assumed): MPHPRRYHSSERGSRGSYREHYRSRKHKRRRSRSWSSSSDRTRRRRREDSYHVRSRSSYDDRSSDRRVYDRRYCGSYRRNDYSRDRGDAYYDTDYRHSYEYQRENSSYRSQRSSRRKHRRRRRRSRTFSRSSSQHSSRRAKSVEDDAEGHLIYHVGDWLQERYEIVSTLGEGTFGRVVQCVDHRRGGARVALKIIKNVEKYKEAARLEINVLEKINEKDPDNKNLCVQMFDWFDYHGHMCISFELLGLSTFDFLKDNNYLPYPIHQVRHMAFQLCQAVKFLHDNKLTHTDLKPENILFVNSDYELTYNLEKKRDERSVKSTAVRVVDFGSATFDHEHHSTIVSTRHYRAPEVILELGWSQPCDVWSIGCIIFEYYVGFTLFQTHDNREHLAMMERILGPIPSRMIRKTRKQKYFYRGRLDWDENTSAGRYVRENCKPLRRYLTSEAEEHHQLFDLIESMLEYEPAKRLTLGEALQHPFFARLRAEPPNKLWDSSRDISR

`Cc1nccc2c1[nH]c1cc(OCCCCN)ccc12` [7b]: the “haspin inhibition at 10 µM” value on haspin [1] is “inactive”.
In the case of `CCCNc1ccc2ncc(-c3ccc4[nH]ncc4c3)n2n1` [CHR-6494], the anti-tumor activity result in the test on mouse xenograft model is “displayed anti-tumor activity”.
On to `COc1ccc2c3ccnc(C(F)(F)F)c3n(CCCCN)c2c1` [compound 42], for which the inhibition at 10 µM on CaMK2b, at CaMK2d, at CDK7-CycH-Mat1, on cGK2, on CK1d and at CLK1 was at least 90% each time. For the same molecule, the inhibition at 10 µM at CLK2, on DYRK1A, on DYRK1B, on DYRK3, on PASK and at PIM1 was at least 90% throughout. The inhibition at 10 µM at PKD3 and at haspin [2] was at least 90% throughout.
With `Cc1nccc2c1[nH]c1cc(OCCCN)ccc12` [7a], on haspin [1], the “haspin inhibition at 10 µM” value is “inactive”.
